In PubChem BioAssay AID256 (DTP/NCI, 2004):
Values joined by “and” are separate entries in the source; they are usually repeats but may differ in a detail not shown here. Identical values can stand only once. Toxic doses and inconclusive results are not listed.

Test system: CD2F1 mice, L1210 leukemia ip, survival T/C
Test: NCI In Vivo Anticancer Drug Screen. Data for tumor model L1210 Leukemia (intraperitoneal) in CD2F1 (CDF1) mice
Conditions: higher = longer survival
Procedure, shortened: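 Mice carrying a transplanted tumor received test compound or vehicle alone. The value is the measurement in the treated group divided by that in the vehicle-treated control group.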

[1] = endpoint: mean survival time, dose: 100.0 mg/kg/injection, schedule: Q04DX002 (ip), vehicle: saline with Tween-80
[2] = endpoint: mean survival time, dose: 200.0 mg/kg/injection, schedule: Q04DX002 (ip), vehicle: saline with Tween-80
[3] = endpoint: mean survival time, dose: 100.0 mg/kg/injection, schedule: Q04DX003 (ip), vehicle: saline with Tween-80
[4] = endpoint: mean survival time, dose: 200.0 mg/kg/injection, schedule: Q04DX003 (ip), vehicle: saline with Tween-80
[5] = endpoint: mean survival time, dose: 400.0 mg/kg/injection, schedule: Q04DX002 (ip), vehicle: saline with Tween-80
[6] = endpoint: mean survival time, dose: 12.5 mg/kg/injection, schedule: Q01DX009 (ip), vehicle: water
[7] = endpoint: mean survival time, dose: 25.0 mg/kg/injection, schedule: Q01DX009 (ip), vehicle: water

With `CC(C)(C)[Si](OP(=O)(O[Si](c1ccccc1)(c1ccccc1)C(C)(C)C)N(CCCl)CCCl)(c1ccccc1)c1ccccc1` the T/C (endpoint: mean survival time, dose: 15.63 mg/kg/injection, schedule: Q01DX001 (ip), vehicle: distilled water + Tween-80) was 101 % of control, the T/C (endpoint: mean survival time, dose: 31.25 mg/kg/injection, schedule: Q01DX001 (ip), vehicle: distilled water + Tween-80) was 95 % of control and the T/C (endpoint: mean survival time, dose: 62.5 mg/kg/injection, schedule: Q01DX001 (ip), vehicle: distilled water + Tween-80) was 101 % of control. The T/C (endpoint: mean survival time, dose: 125.0 mg/kg/injection, schedule: Q01DX001 (ip), vehicle: distilled water + Tween-80) was 98 % of control, the T/C (endpoint: mean survival time, dose: 250.0 mg/kg/injection, schedule: Q01DX001 (ip), vehicle: distilled water + Tween-80) was 92 % of control and the T/C (endpoint: mean survival time, dose: 500.0 mg/kg/injection, schedule: Q01DX001 (ip), vehicle: distilled water + Tween-80) was 103 % of control.
For `NCCCN1CCN(c2ccccc2)CC1`, the T/C [1] was 92 % of control and the T/C [2] was 92 % of control.
In the case of `CSc1cc(NC(C)=O)nc2nc[nH]c12`, the T/C (endpoint: mean survival time, dose: 100.0 mg/kg/injection, schedule: Q01DX001 (ip), vehicle: Klucel (hydroxypropylcellulose) (HPC)) is reported as 98 % of control and the T/C (endpoint: mean survival time, dose: 200.0 mg/kg/injection, schedule: Q01DX001 (ip), vehicle: Klucel (hydroxypropylcellulose) (HPC)) is reported as 97 % of control.
For `CCOC(=O)CCCSc1nn(C2OC(CO)C(O)C2O)c(=O)[nH]c1=O` (stereo not given), the T/C (endpoint: mean survival time, dose: 12.5 mg/kg/injection, schedule: Q01DX005 (ip), vehicle: water) was 101 % of control, the T/C (endpoint: mean survival time, dose: 25.0 mg/kg/injection, schedule: Q01DX005 (ip), vehicle: water) was 101 % of control and the T/C (endpoint: mean survival time, dose: 50.0 mg/kg/injection, schedule: Q01DX005 (ip), vehicle: water) was 101 % of control. The T/C (endpoint: mean survival time, dose: 100.0 mg/kg/injection, schedule: Q01DX005 (ip), vehicle: water) was 98 % of control and the T/C (endpoint: mean survival time, dose: 200.0 mg/kg/injection, schedule: Q01DX005 (ip), vehicle: water) was 104 % of control.
With `CC1COC(=O)O1` (stereo not given) the T/C (endpoint: mean survival time, dose: 100.0 mg/kg/injection, schedule: Q01DX009 (ip), vehicle: saline) was 101 % of control, the T/C [3] was 97 % of control and the T/C (endpoint: mean survival time, dose: 200.0 mg/kg/injection, schedule: Q01DX009 (ip), vehicle: saline) was 98 % of control. The T/C [4] was 97 % of control, the T/C (endpoint: mean survival time, dose: 400.0 mg/kg/injection, schedule: Q01DX009 (ip), vehicle: saline) was 101 % of control and the T/C (endpoint: mean survival time, dose: 400.0 mg/kg/injection, schedule: Q04DX003 (ip), vehicle: saline with Tween-80) was 96 % of control.
`CCCCCC(=O)SCC(=O)OCC(=O)[C@]1(O)Cc2c(O)c3c(c(O)c2[C@@H](OC2CC(N)C(O)C(C)O2)C1)C(=O)c1c(OC)cccc1C3=O` (stereo not given in full) was tested, and the T/C (endpoint: mean survival time, dose: 0.39 mg/kg/injection, schedule: Q01DX005 (ip), vehicle: water) was 115 % of control and 110 % of control, the T/C (endpoint: mean survival time, dose: 0.78 mg/kg/injection, schedule: Q01DX005 (ip), vehicle: water) was 116 % of control and 124 % of control and the T/C (endpoint: mean survival time, dose: 1.56 mg/kg/injection, schedule: Q01DX005 (ip), vehicle: water) was 118 % of control. The T/C (endpoint: mean survival time, dose: 6.25 mg/kg/injection, schedule: Q01DX005 (ip), vehicle: water) was 104 % of control.
`CC1CC(C)(C)NC(C)(C(C)CC(C)(C)C)O1` (stereo not given) was tested, and the T/C (endpoint: mean survival time, dose: 50.0 mg/kg/injection, schedule: Q04DX002 (ip), vehicle: saline) was 108 % of control, the T/C (endpoint: mean survival time, dose: 100.0 mg/kg/injection, schedule: Q01DX001 (ip), vehicle: saline with Tween-80) was 93 % of control and the T/C (endpoint: mean survival time, dose: 100.0 mg/kg/injection, schedule: Q04DX002 (ip), vehicle: saline) was 104 % of control. For the same compound, the T/C (endpoint: mean survival time, dose: 200.0 mg/kg/injection, schedule: Q01DX001 (ip), vehicle: saline with Tween-80) was 93 % of control and the T/C (endpoint: mean survival time, dose: 200.0 mg/kg/injection, schedule: Q04DX002 (ip), vehicle: saline) was 93 % of control.
With `CCCC(Br)C(=O)OCC` (stereo not given) the T/C (endpoint: mean survival time, dose: 50.0 mg/kg/injection, schedule: Q01DX009 (ip), vehicle: saline with Tween-80) was 96 % of control, the T/C (endpoint: mean survival time, dose: 100.0 mg/kg/injection, schedule: Q01DX009 (ip), vehicle: saline with Tween-80) was 93 % of control and the T/C (endpoint: mean survival time, dose: 200.0 mg/kg/injection, schedule: Q01DX009 (ip), vehicle: saline with Tween-80) was 93 % of control.
In the case of `CCCCN(Cc1ccccc1)CC(O)C[NH-].O=C(O)CC(=O)O.[Pt+2]` (stereo not given), the T/C (endpoint: median survival time, dose: 10.0 mg/kg/injection, schedule: Q04DX003 (ip), vehicle: water) is reported as 98 % of control, the T/C (endpoint: median survival time, dose: 20.0 mg/kg/injection, schedule: Q04DX003 (ip), vehicle: water) is reported as 105 % of control and the T/C (endpoint: median survival time, dose: 27.25 mg/kg/injection, schedule: Q04DX003 (ip), vehicle: water) is reported as 101 % of control. The T/C (endpoint: median survival time, dose: 40.0 mg/kg/injection, schedule: Q04DX003 (ip), vehicle: water) was 109 % of control, the T/C (endpoint: median survival time, dose: 54.5 mg/kg/injection, schedule: Q04DX003 (ip), vehicle: water) was 101 % of control and the T/C (endpoint: median survival time, dose: 80.0 mg/kg/injection, schedule: Q04DX003 (ip), vehicle: water) was 105 % of control. The T/C (endpoint: median survival time, dose: 109.0 mg/kg/injection, schedule: Q04DX003 (ip), vehicle: water) was 108 % of control.
For `CCCCOC(=O)COc1ccc(F)cc1`, the T/C [1] was 94 % of control, the T/C [2] was 94 % of control and the T/C [5] was 94 % of control.
In the case of `COc1cc2ccc(/C=C\[N+](=O)[O-])cc2cc1OC`, the T/C [6] is reported as 94 % of control, the T/C [7] is reported as 102 % of control and the T/C (endpoint: mean survival time, dose: 50.0 mg/kg/injection, schedule: Q01DX009 (ip), vehicle: water) is reported as 96 % of control.
In the case of `CCC12OC3(CC)C4C(=O)OC1C1(CC)OC4(CC)C3C(=O)OC21`, the T/C (endpoint: mean survival time, dose: 100.0 mg/kg/injection, schedule: Q01DX001 (ip), vehicle: saline) is reported as 103 % of control, the T/C (endpoint: mean survival time, dose: 100.0 mg/kg/injection, schedule: Q04DX003 (ip), vehicle: saline) is reported as 102 % of control and the T/C (endpoint: mean survival time, dose: 200.0 mg/kg/injection, schedule: Q01DX001 (ip), vehicle: saline) is reported as 102 % of control. For the same compound, the T/C (endpoint: mean survival time, dose: 200.0 mg/kg/injection, schedule: Q04DX003 (ip), vehicle: saline) was 100 % of control, the T/C (endpoint: mean survival time, dose: 400.0 mg/kg/injection, schedule: Q01DX001 (ip), vehicle: saline) was 96 % of control and the T/C (endpoint: mean survival time, dose: 400.0 mg/kg/injection, schedule: Q04DX003 (ip), vehicle: saline) was 94 % of control.
In the case of `CN(C)C(=S)Oc1c(S(=O)(=O)F)ccc(Cl)c1Cl`, the T/C [1] is reported as 91 % of control, the T/C [2] is reported as 91 % of control and the T/C [5] is reported as 97 % of control.
For `CC(C)(C)OC(=O)NCC(=O)ON1C(=O)CCC1=O`, the T/C [3] was 96 % of control and the T/C [4] was 87 % of control.
For `CN(C)c1ccc(N=Nc2ccc(S(=O)(=O)O)cc2)cc1.CN(C)c1ccc(N=Nc2ccc(S(=O)(=O)O)cc2)cc1.O.O.[NH-]C1CCCCC1[NH-].[Pt+2]`, the T/C (endpoint: median survival time, dose: 3.12 mg/kg/injection, schedule: Q04DX003 (ip), vehicle: saline) was 96 % of control, the T/C (endpoint: median survival time, dose: 6.25 mg/kg/injection, schedule: Q04DX003 (ip), vehicle: saline) was 106 % of control and the T/C (endpoint: median survival time, dose: 12.5 mg/kg/injection, schedule: Q04DX003 (ip), vehicle: saline) was 101 % of control. For the same compound, the T/C (endpoint: median survival time, dose: 25.0 mg/kg/injection, schedule: Q04DX003 (ip), vehicle: saline) was 100 % of control, the T/C (endpoint: median survival time, dose: 50.0 mg/kg/injection, schedule: Q04DX003 (ip), vehicle: saline) was 98 % of control and the T/C (endpoint: median survival time, dose: 100.0 mg/kg/injection, schedule: Q04DX003 (ip), vehicle: saline) was 105 % of control. The T/C (endpoint: median survival time, dose: 200.0 mg/kg/injection, schedule: Q04DX003 (ip), vehicle: saline) was 115 % of control.
In the case of `CCOC(=O)CC(=O)COC(=O)CC(=O)OCC`, the T/C (endpoint: mean survival time, dose: 12.5 mg/kg/injection, schedule: Q01DX009 (ip), vehicle: other) is reported as 96 % of control, the T/C (endpoint: mean survival time, dose: 25.0 mg/kg/injection, schedule: Q01DX009 (ip), vehicle: other) is reported as 100 % of control and the T/C (endpoint: mean survival time, dose: 50.0 mg/kg/injection, schedule: Q01DX009 (ip), vehicle: other) is reported as 94 % of control. The T/C (endpoint: mean survival time, dose: 100.0 mg/kg/injection, schedule: Q01DX009 (ip), vehicle: other) was 97 % of control and the T/C (endpoint: mean survival time, dose: 200.0 mg/kg/injection, schedule: Q01DX009 (ip), vehicle: other) was 97 % of control.
`O=C(Nc1ccccc1)Oc1c(Cl)cc(Cl)c2ccccc12` was tested, and the T/C [1] was 88 % of control, the T/C [2] was 88 % of control and the T/C [5] was 88 % of control.
For `O=S(=O)(F)c1cc(C[P+](c2ccccc2)(c2ccccc2)c2ccccc2)ccc1Cl`, the T/C (endpoint: mean survival time, dose: 6.25 mg/kg/injection, schedule: Q04DX003 (ip), vehicle: saline with Tween-80) was 104 % of control, the T/C (endpoint: mean survival time, dose: 12.5 mg/kg/injection, schedule: Q04DX003 (ip), vehicle: saline with Tween-80) was 104 % of control and the T/C (endpoint: mean survival time, dose: 25.0 mg/kg/injection, schedule: Q04DX003 (ip), vehicle: saline with Tween-80) was 116 % of control.
With `O=C(Nc1ccc(C2=NCCCN2)cc1)c1ccc(NC(=O)c2ccc(C3=NCCCN3)cc2)cc1` the T/C (endpoint: mean survival time, dose: 1.0 mg/kg/injection, schedule: Q01DX008 (iv), vehicle: other) was 95 % of control, the T/C (endpoint: mean survival time, dose: 2.0 mg/kg/injection, schedule: Q01DX008 (iv), vehicle: other) was 107 % of control and the T/C (endpoint: mean survival time, dose: 4.0 mg/kg/injection, schedule: Q01DX008 (iv), vehicle: other) was 189 % of control.
`O=C1C2C3C=CC(O3)C2C(=O)N1O` (stereo not given) was tested, and the T/C [6] was 97 % of control and the T/C [7] was 96 % of control.
